In patent publication US9956199B2, “Chromane-like cyclic prenylflavonoids for the medical intervention in neurological disorders” (priority 2011, dated 2018):
Entries after “also recorded” stand apart in the source; their conditions may differ.

Tested on: promoter of the neuronal precursor specific gene doublecortin (DCX)
Assay: DCX promoter firefly-luciferase assay in primary fetal mouse brain derived (MEF) cells
Assay type: cell-based
Conditions: for effect on DCX promoter induction: 10 μM, MEF cells, three days; for stimulatory effect on the DCX promoter activity (FF/R relative to control): DCX promoter-luciferase transfected MEF cells, stimulated three days
Experimental: Primary mouse embryonic day 16 forebrain (MEF) cultures were prepared as follows. Pregnant NMRI mice (Charles River Laboratories, Sulzfeld, Germany) were sacrificed and the uteri promptly removed and immersed in ice-cold Dulbecco's phosphate buffered saline solution—DPBS (PAA, Pasching, Austria). Eight embryonic day (E) 16 embryos were released from the uteri; forebrains were taken out, separated from surrounding tissues and mechanically dissociated using a razor blade. Subsequently the dissociated cells were collected by 5 min centrifugation at 120×g. The pellet was resuspended in 10 ml PPD-solution containing 0.01% papain (Worthington, England), 0.1% Dispasell (Roche, Basel, Switzerland), 0.01% DNasel (Worthington, England), 12.4 mM MgSO4 dissolved in HBSS w/o Ca/Mg (PAA, Pasching, Austria). The cell suspension was incubated at 37° C. and triturated every ten minutes for three times. The cell suspension was then centrifuged at 120×g for 5 minutes and washed three times in Neurobasal medium (Gibco BRL, Germany) supplemented with 2% (v/v) B27 (Gibco BRL, Karlsruhe), 2 mM L-glutamine, 100 μg/ml Penicillin/Streptomycin (PAN Biotech GmbH, Aidenbach, Germany). Finally, the cell preparation was resuspended in 12 ml Neurobasal medium supplemented with B27 (Gibco BRL, Karlsruhe), 2 mM L-glutamine, 100 μg/ml Penicillin/Streptomycin (PAN Biotech GmbH, Aidenbach, Germany), 20 ng/ml Epidermal Growth Factor—rhEGF, 20 ng/ml Fibroblast Growth Factor—rhFGF (R&D Systems, Wiesbaden-Nordenstadt, Germany) and 2 μg/ml Heparin (Sigma-Aldrich, Taufkirchen, Germany) (NB plus all), seeded in one T75 flask (TPP, Switzerland) and maintained in a humidified atmosphere at 37° C. and 5% CO2. […] On this day (day 2), half of the medium was refreshed and on day 4 cells were passaged. To passage the cells, the culture medium containing the floating neurospheres was collected in a 15 ml tube (Corning, Lowell, USA) and centrifuged at 120×g for 5 min. For dissociation, the pellet was resuspended in 500 μl Accutase (PAA, Pasching, Austria) and triturated using a 1 ml pipette. The cell suspension was incubated at 37° C. for 10 min, and then, 10 ml media were added. Cell number was determined by Trypan blue exclusion.
Luciferase assays were performed using a noncommercial dual luciferase enzyme assay system (Dyer et al., 2000, Anal Biochem). In this system, a co-transfection with pDCX-Luci and a control vector driving Renilla-luciferase under the CMV promoter was performed. The two different luciferases have different specific substrates and, therefore, the DCX regulatory region driven firefly luciferase activity can be distinguished from CMV driven Renilla-luciferase. For analysis, the firefly luciferase activity was normalized against the CMV driven Renilla-luciferase. For each transfection reaction, a volume containing two million cells was transferred into a 15 ml tube (Corning, Lowell, USA), centrifuged at 120×g for 5 min to pellet the cells and resuspended in 100 μl Amaxa Mouse Neural Stem Cell Nucleofector Kit (Lonza, Kln, Germany). Then, pDCX-Luci (Karl, 2005) and pRL3 (Promega, Mannheim, Germany) (5 μg each) were added and the entire reaction mix was transferred into an Amaxa transfection cuvette. Transfection was done using the A-033 program in the Amaxa Nucleofector II (Lonza, Kln, Germany). Transfected cells were then pipetted into 20 ml of DMEM knockout medium (Gibco BRL, Germany) containing 20% serum replacement supplement (PAN Biotech GmbH, Aidenbach, Germany), 2 mM L-glutamine (PAN Biotech GmbH, Aidenbach, Germany) and 100 μg/ml Penicillin/Streptomycin (PAN Biotech GmbH, Aidenbach, Germany) (DMEM-KO plus supplements) in a 50 ml tube (Corning, Lowell, USA). From this resulting cell suspension, 200 μl per well were plated in Poly-Ornithine/Laminin coated 96-well-luciferase plates (Wimmer & Macho, Wels, Austria) in a cell density of 20.000 cells per well, as described herein below.

SMILES | effect on DCX promoter induction | stimulatory effect on the DCX promoter activity (FF/R relative to control)
COc1cc2c(c(O)c1C(=O)/C=C/c1ccc(O)cc1)C=CC(C)(C)O2 [Compound 1a, (E)-1-(5-hydroxy-7-methoxy-2,2-dimethyl-2H-chromen-6-yl)-3-(4-hydroxyphenyl)prop-2-en-1-one] | significantly higher than those exerted by the reference compounds | significantly and strongly induce; also recorded: very strong and significant stimulatory effect
COc1cc2c(c(O)c1C(=O)/C=C/c1ccc(O)cc1)CCC(C)(C)O2 [Compound 1b, (E)-1-(5-hydroxy-7-methoxy-2,2-dimethylchroman-6-yl)-3-(4-hydroxyphenyl)prop-2-en-1-one] | significantly higher than those exerted by the reference compounds | significantly and strongly induce; also recorded: very strong and significant stimulatory effect
